# In PubChem BioAssay AID812 (SRMLSC, 2007):
# Activity calls are given as the source filed them. How the calls were made is not given here.
# System: Saccharomyces cerevisiae lifespan extension, no nicotinamide
# Experiment: yeast lifespan extension without nicotinamide, confirmation, yeast lifespan extension project, S. cerevisiae (AID 812);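 further: growth read as optical density after 42 hours of incubation at 30C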
row,Compound,EC50
1,CN1C(=O)C(C(=O)Nc2ccccc2F)c2ccccc21 (stereo unspecified),> 40 µM (inactive)
2,COC(=O)c1cc(OC)c(OC)cc1NC(=S)Nc1cccc(C(C)=O)c1,> 40 µM (inactive)
3,CC(=O)Nc1ccc(C(=O)CSc2nnc(-c3ccc(O)cc3)n2CC2CCCO2)cc1 (stereo unspecified),> 40 µM (inactive)
4,Cc1c(NC(=O)C(=O)/C=C(\O)c2ccc(Cl)cc2)c(=O)n(-c2ccccc2)n1C,> 40 µM (inactive)
5,O=C(Nc1cccnc1)c1c(O)c2cccc3c2n(c1=O)CC3,> 40 µM (inactive)
6,Cc1nc(SC(C)C)[nH]c(=O)c1Cc1ccccc1,> 40 µM (inactive)
7,CCCCCSc1nc2c(c(=O)[nH]c(=O)n2C)n1C,> 40 µM (inactive)
8,COC(=O)c1sc(S(=O)(=O)Nc2ccc(Br)cc2)c(C(=O)OC)c1C,> 40 µM (inactive)
9,COc1cccc(CSc2nc3ccccc3cc2C=O)c1,> 40 µM (inactive)
10,Cc1ccc2[nH]c(=O)c(CN(CCO)Cc3nnnn3CCc3ccccc3)cc2c1,> 40 µM (inactive)
11,COc1ccc(CNC(=O)C2CCN(c3nc(OC)nc(OC)n3)CC2)cc1,> 40 µM (inactive)
12,CCOC(=O)CCCNC(=O)COc1ccccc1C#N,> 40 µM (inactive)
13,CCCCSc1[nH]c(=O)c(C(=O)OCC)cc1C#N,> 40 µM (inactive)
14,COc1ccccc1CN(Cc1nc2ccccc2c(=O)[nH]1)C(=O)Nc1cccc(C)c1,> 40 µM (inactive)
15,O=C1CC(c2ccccc2)CC(O)=C1C=NCCN1CCNCC1 (stereo unspecified),> 40 µM (inactive)
16,O=[N+]([O-])c1cc2oc3c(c2c(C=NCc2ccccc2)c1O)CCCC3,> 40 µM (inactive)
17,COCCN(CCOC)S(=O)(=O)c1ccc(C(=O)Nc2sc3c(c2C(N)=O)CCCCC3)cc1,> 40 µM (inactive)
18,C=CCn1c(C)cc(C(=O)COc2ncnc3sccc23)c1C,> 40 µM (inactive)
19,O=C1/C(=C\c2cccnc2)CN(Cc2ccccc2)C/C1=C\c1cccnc1,> 40 µM (inactive)
20,CCOC(=O)C1=C(N)OC2=C(C(=O)CCC2)C1c1sccc1C (stereo unspecified),> 40 µM (inactive)
21,COc1ccc(/C=N/NC(=O)c2csc(-n3nc(C)cc3C(F)(F)F)n2)cc1,> 40 µM (inactive)
22,COc1ccc(/C=C(/C(=O)c2ccc(Cl)cc2Cl)n2cncn2)cc1,> 40 µM (inactive)
23,O=S(=O)(CCSc1ccccn1)c1nc2ccccc2s1,> 40 µM (inactive)
24,C=C1C(=O)C=C2CN(C(=O)c3ccccc3)[C@@](Cc3ccc(F)cc3)(C(=O)OC)[C@@H]12,> 40 µM (inactive)

row,Compound,EC50
1,O=C(NC(=S)NNC(=O)c1ccc(Cl)cc1Cl)c1cccnc1,> 40 µM (inactive)
2,COc1cc(/C=C/C(=O)C2C(=O)C=C(C)OC2=O)cc(OC)c1O (stereo unspecified),> 40 µM (inactive)
3,CC(=O)c1c(O)cc2n(c1=O)-c1ccc(Cl)cc1C2(C)C,> 40 µM (inactive)
4,Cc1n[nH]c(=O)n1-c1cccc(C(F)(F)F)c1,> 40 µM (inactive)
5,O=c1c(-c2ccc(Cl)cc2)[n+]([O-])c2ccccc2n1OCc1ccccn1,> 40 µM (inactive)
6,COC(=O)CC1=NN(c2ccccc2)C(=O)/C1=C\c1ccc(OC)cc1,> 40 µM (inactive)
7,O=c1[nH]c2ccccc2nc1Cc1ccccc1,> 40 µM (inactive)
8,CS(=O)(=O)c1nc(-c2ccccc2)cc(C(F)(F)F)n1,> 40 µM (inactive)
9,CCCCC(c1nnnn1CC1CCCO1)N1CCN(c2nc3ccccc3s2)CC1 (stereo unspecified),> 40 µM (inactive)
10,COc1cc(/C=c2\sc3nc(-c4ccncc4)nn3c2=O)ccc1OC(C)=O,> 40 µM (inactive)
11,Cc1ccc(-c2nc3ccc(Cl)cc3n2OC(=O)N(C)C)cc1,> 40 µM (inactive)
12,O=C(NC(=S)NNS(=O)(=O)c1ccccc1)c1ccc([N+](=O)[O-])cc1,> 40 µM (inactive)
13,Cc1nonc1NC(=O)CSc1nc(C2CCCCC2)nc2ccccc12,> 40 µM (inactive)
14,CC1CC(C)CN(S(=O)(=O)c2cccc(C(=O)N3C(=O)c4cccc(N)c4C3=O)c2)C1 (stereo unspecified),> 40 µM (inactive)
15,CNC(=S)NC1CC2CCCC(C1)N2Cc1ccco1 (stereo unspecified),> 40 µM (inactive)
16,CC(C)c1nnc(NC(=O)c2c(O)c3cccc4c3n(c2=O)CCC4)s1,> 40 µM (inactive)
17,C=CCn1c(O)c(C(CC)=NCCN2CCOCC2)c(=O)[nH]c1=O,> 40 µM (inactive)
18,O=C(Nc1scc(-c2cccs2)c1C(=O)O)c1cccs1,> 40 µM (inactive)
19,CCOC(=O)/C(=C\c1cn(C)c2ccccc12)[N+](=O)[O-],> 40 µM (inactive)
20,CCCCCOC(=O)CSc1nc2c(c(=O)[nH]c(=O)n2C)n1CCc1ccccc1,> 40 µM (inactive)
21,Oc1ccc2ccccc2c1C=Nc1ccc(N2CCOCC2)cc1,> 40 µM (inactive)
22,CN(Cc1c(O)ccc2c1oc(=O)c1ccccc12)C1CCCCC1,> 40 µM (inactive)
23,O=c1c2[nH]c3ccccc3c2ncn1Cc1ccco1,> 40 µM (inactive)
24,CCCc1nc2c(c(=O)c3ccccc3n2C)c(=O)n1C1CCCCCC1,> 40 µM (inactive)

row,Compound,EC50
1,CCOC(=O)CCS(=O)(=O)c1nc(-c2ccccc2)cc(C(F)(F)F)n1,> 40 µM (inactive)
2,CC(=O)c1c(C)[nH]c(C(=O)OC2CCCCC2=O)c1C (stereo unspecified),> 40 µM (inactive)
3,CCOC(=O)CS(=O)(=O)c1nc(-c2ccc(F)cc2)cc(C(F)(F)F)n1,> 40 µM (inactive)
4,COc1ccc(O)c(C(=O)c2cc(C#N)c(=O)n(CC3CCCO3)c2)c1 (stereo unspecified),> 40 µM (inactive)
5,O=C1C(=C(O)c2ccccc2)C(=O)c2ccccc21,> 40 µM (inactive)
6,CC1(C)CC(=O)C2=C(C1)OC1=C(C(=O)CC(C)(C)C1)C2c1ccc(O)cc1O,> 40 µM (inactive)
7,CC(C)=C1C(=O)NN(c2ccc(C)c(Cl)c2)C1=O,> 40 µM (inactive)
8,O=C(c1ccccc1)C(CN1CCCC1)c1ccccc1 (stereo unspecified),> 40 µM (inactive)
9,Cc1cc(N2C(=O)CC(Cc3ccccc3)C2=O)no1 (stereo unspecified),> 40 µM (inactive)
10,Cc1cccc(N2C(=O)C(Oc3ccc(Cl)cc3Cl)C2C=O)c1C (stereo unspecified),> 40 µM (inactive)
11,CCOc1cc(/C=C\[N+](=O)[O-])ccc1OCC(=O)Nc1ccccc1C,> 40 µM (inactive)
12,COc1ccccc1CNC(=O)C(CCSC)NS(=O)(=O)c1ccc2c(c1)oc(=O)n2C (stereo unspecified),> 40 µM (inactive)
13,COc1ccc(CN2CCN(C(=O)COc3cccc(C)c3)CC2)c(OC)c1,> 40 µM (inactive)
14,CCN1CCCC1CNC(=O)COc1cc(=O)n(C)c2ccccc12 (stereo unspecified),> 40 µM (inactive)
15,CCOc1ccccc1/C=c1\sc2ncnn2c1=O,> 40 µM (inactive)
16,CCOC(=O)CN1C(=O)N[C@H](c2ccc(Br)cc2)C(C(C)=O)=C1C,> 40 µM (inactive)
17,CCC(C)OC(=O)C1C(c2ccccc2)C(C(=O)O)C1c1ccccc1 (stereo unspecified),> 40 µM (inactive)
18,O=C(CCl)c1ccc(Cc2ncc(C(F)(F)F)cc2Cl)s1,> 40 µM (inactive)
19,COc1cc(OC)cc(-c2nc3ccccc3c(=O)n2OC(=O)c2ccc(Br)cc2)c1,> 40 µM (inactive)
20,CC(C)(C)C(=O)/C(=C/c1cccc([N+](=O)[O-])c1)n1cncn1,> 40 µM (inactive)
21,O=C(NC(=S)Nc1nc2c(s1)CSc1ccccc1-2)c1ccccc1,> 40 µM (inactive)
22,O=CN(/C=C1\Sc2ccccc2C1=O)Cc1ccccc1,> 40 µM (inactive)
23,COc1ccccc1C(=O)Oc1cc(N)n(S(=O)(=O)c2ccc(C)cc2)n1,> 40 µM (inactive)
24,CS(=O)(=O)Oc1ccc(Br)cc1/C=C1/N=C(c2ccco2)OC1=O,> 40 µM (inactive)

row,Compound,EC50
1,CC1Cc2ccccc2N1C(=O)Cn1cnc2ccccc2c1=O (stereo unspecified),> 40 µM (inactive)
2,Cc1c(O)c(S(=O)c2ccccc2)c(=O)n(-c2ccccc2)c1-c1ccccc1 (stereo unspecified),> 40 µM (inactive)
3,O=C1c2ccccc2C(Nc2ccc3c(c2)OCCO3)N1c1ccccn1 (stereo unspecified),> 40 µM (inactive)
4,O=C1c2ccccc2C(=O)N1Cc1nc2ccccc2c(=O)n1-c1ccc(Br)cn1,> 40 µM (inactive)
5,COc1ccc2c3c(cccc13)C(=O)N(O)C2=O,> 40 µM (inactive)
6,CC(C)C(OC(=O)CN1C(=O)COc2ccccc21)C(=O)NC1CCCC1 (stereo unspecified),> 40 µM (inactive)
7,C=C(C(=O)c1ccccc1)C(C)C(=C)C(=O)c1ccccc1,> 40 µM (inactive)
8,O=C(COc1ccc2ccccc2c1)Nc1cccc(C(=O)Nc2ccccc2C(=O)O)c1,> 40 µM (inactive)
9,COc1cccc(/C=C2\C(=O)N(c3cccc(C)c3)C(=O)c3ccccc32)c1,> 40 µM (inactive)
10,O=C1c2ccccc2NC(c2ccc(Cl)cc2Cl)N1O (stereo unspecified),> 40 µM (inactive)
11,CN1CCC2(CC1)C(C#N)=C(N)NC(S)=C2C#N,> 40 µM (inactive)
12,CCCc1[nH]nc2c1C(c1ccc(Br)s1)C(C#N)=C(N)O2 (stereo unspecified),> 40 µM (inactive)
13,Cc1ccccc1Oc1cc(-n2ncc(Cl)c(Cl)c2=O)ncn1,> 40 µM (inactive)
14,COc1ccc(NC(=S)N2CCN(CCN=CC3=C(O)CC(c4ccccc4)CC3=O)CC2)cc1 (stereo unspecified),> 40 µM (inactive)
15,O=C(Nc1ccc(S(=O)(=O)N2CCc3ccccc3C2)cc1)c1ccccc1,> 40 µM (inactive)
16,CCc1oc2ccccc2c1C(=O)CCN1CCCCC1,> 40 µM (inactive)
17,CC(=NCCc1c(C)[nH]c2ccc(C)cc12)C1=C(O)CC(c2ccccc2)CC1=O (stereo unspecified),> 40 µM (inactive)
18,O=C(NCc1cccnc1)c1ccc(S(=O)(=O)N2CCCCC2)cc1,> 40 µM (inactive)
19,O=C(O)Cc1ccc(N=Cc2c(O)ccc3ccccc23)cc1,> 40 µM (inactive)
20,CCOc1ccc(C(=O)C(CN2CCOCC2)c2ccccc2)cc1 (stereo unspecified),> 40 µM (inactive)
21,CCOC(=O)C1Cc2cc3c(cc2C1=O)CC(C(=O)OCC)C3=O (stereo unspecified),> 40 µM (inactive)
22,C=C(C(=O)c1ccccc1)C(CC(=O)c1ccccc1)c1ccccc1 (stereo unspecified),> 40 µM (inactive)
23,COc1ccc2c(=O)c3c(=O)n(Cc4ccco4)c(-c4ccc(C)cc4)nc3oc2c1,> 40 µM (inactive)
24,O=C1CC(c2ccc(F)cc2)CC(O)=C1C=NCCN1CCN(C(=O)Nc2ccccc2)CC1 (stereo unspecified),> 40 µM (inactive)
